# From patent publication US20120015901A1, “METHODS AND PREPARATIONS FOR PROTECTING CRITICALLY ILL PATIENTS” (priority 2009, published 2012)
# Columns and labels:
# critically ill rabbits = assay: Toxicity of spermidine, sequential up-down allocation; assay type: in vivo, rabbit
# Procedure: The toxicity of spermidine was assessed using a sequential up-down allocation technique. The administered dose of spermidine was determined by the response of the previous animal to a higher or lower dose (with incremental/decremental steps per 300 mg/d; minimum dose 600 mg/d). When the animal survived until day 4, this was considered as absence of acute toxicity. Mortality during the first 3 days was considered as acute toxicity. When there was no acute toxic effect, the next included animal would receive 300 mg spermidine/day more. When there was an acute toxic effect, the next included animal would receive 300 mg/day less (until the starting dose as a minimum). […] The protocol was otherwise similar as in the experiments described previously.
# [1] = test system: chronologically aging wild type yeast cells; assay: Yeast cell death and oxidative stress markers (DHE, Annexin V/PI); assay type: cell-based
# Source text: For chronological aging experiments, cultures were inoculated from fresh overnight cultures to OD600 of 0.1 (˜1·10^6 cells/ml) with culture volume being 10% of flask volume and aliquots were taken out to perform survival plating at indicated time points (Herker, at al. (2004) J. Cell Biol. 164, 501-507. Survival at day 1 of wild type control cultures was set to 100% and other samples calculated accordingly. If not otherwise indicated, representative aging experiments are shown with at least three independent samples (as indicated) aged at the same time, which have been repeated at least twice with similar outcome. In case of experiments with Δspe1 (FIG. 24 A-E), all strains were inoculated to 5·10^4 cells/ml. Upon deletion of both IKI3 and SAS3 we observed slight aggregation of cells possibly due to a defect in late budding events. Therefore, for calculation of survival rates in experiments using Δiki3Δsas3, cell numbers of each sample were determined after two pulse of sonication on ice with Sonifier 250 from Benson (Duty Cycle: 35; Output Control: 2.5). Tests for apoptotic (TUNEL and Annexin V staining) and necrotic (PI staining) markers as well as markers for oxidative stress (DHE staining) were performed as described in Dod et al. (1982) Eur J Biochem 121, 401-405). For quantifications using flow cytometry (BD FACSAria), 30,000 cells were evaluated and analyzed with BD FACSDiva software. Spermidine (S4139, Sigma, Austria) and putrescine (P5780, Sigma, Austria; 1 mM final concentration) were added to stationary cultures at day 1 of the aging experiments (24 h after inoculation). 1 M aqueous stock solution of spermidine was stored in one use aliquots at −20° C. for no longer than 1 month. For adjustment of extracellular pH (pHex) to 6 (±0.5), the required amount of sodium hydroxide was added 30 h after inoculation. […]
# As a further marker for necrosis, nuclear release of the yeast HMGB1 homolog (Nhp6Ap) was monitored by epifluorescence microscopy of ectopically expressed chimeric fusion protein Nhp6Ap-EGFP. […]
# [2] = test system: histone acetyltransferase activity (HAT-activity); assay: HAT activity assay, yeast nuclear extract; assay type: biochemical; conditions: extracts of isolated yeast nuclei; spermidine 100 mM
# Procedure: Yeast nuclei were isolated from 200 ml BY4741 wild type culture (grown for 24 h in SCD to stationary phase) as described previously (Buttner et al. (2007), Mol Cell 25, 233-246). Nuclear extract was prepared using nuclear extraction buffer from BioVision's Nuclear/Cytosol Fractionation Kit (Bio Vision, K266-25) without DTT addition, according to the manufacturer's protocol. Incubation time was doubled to 80 min with vortexing every 8 minutes. Protein concentration was determined via Bradford, giving yields of approximately 1 mg/ml protein. Yeast nuclear extract was immediately subjected to HAT activity assays.
# For HAT-activity determination the commercially available HAT Activity Colorimetric Assay KIT from BioVision (Bio Vision K332-100) was employed. HAT assays were performed according to the manufacturer's protocol. […] Development of tetrazolium dye was measured by absorption at 440 nm using a GeniosPro plate reader (Tecan). Background readings were done with samples without NADH generating enzyme, giving the nuclear extracts unspecific background activity and eliminate any possible negative effects of spermidine addition on the assay itself. […] Calculated slopes of spermidine treated samples were compared to slopes of untreated samples which were set to a relative activity of 100%.
# [3] = test system: chronologically aged yeast cultures; assay: Oxygen consumption and fractionation of upper and lower (quiescent) cells; assay type: cell-based
# Procedure: Oxygen consumption was directly determined in 1.7 ml of chronologically aged yeast cultures transferred to a recording chamber by measuring the decline of oxygen concentration under anaerobic conditions using an oxygen electrode. Slopes were calculated over 15 min within the linear decrease of oxygen (minute 2-17) and normalized to living cells as determined by plating on YEPD agar plates.
# Cells were cultured in SCD media as described in section on “Yeast Strains and Molecular Biology”. Percoll density gradient centrifugation was performed according to Allen et al. (Allen et al. (2006) J Cell Biol 174, 89-100). Cell counts for each fraction were determined using a CASY cell counter (Innovatis).
# [4] = test system: chronologically aging wild type yeast cells; assay: Spontaneous mutation frequency and budding index; assay type: cell-based; conditions: spermidine-treated cultures, 4 mM
# Procedure: Spontaneous mutation frequency was determined based on the appearance of mutants able to form colonies on agar plates containing 60 mg/l L-canavanine sulfate according to Fabrizio et al. (Fabrizio et al. (2004) J Cell Biol 166, 1055-1067). Mutation rates were calculated per 10^6 living (colony forming on YEPD) cells. Budding index was assessed by counting the percentage of budded cells after 10 seconds of sonication on ice using Sonifier 250 from Benson (Duty Cycle: 35; Output Control: 2.5) in micrographs of no more than 40 cells. For each sample, at least 500 cells were evaluated.
# [5] = spermidine treatment during chronological aging
smiles,measurement,setting,value
NCCCCNCCCN [spermidine],time of death after starting the spermidine infusion,"critically ill rabbits; continuous infusion of approximately 600 mg/day, both of two animals",28 h
same,dose without acute toxic effects,"critically ill rabbits; half of the toxic dose, highest dose of the pilot study",300 mg/day
same,dose with acute toxic effects,critically ill rabbits; mortality during the first 3 days,600 mg/day
same,dose with acute toxic effects,critically ill rabbits; per kg body weight,approx 200 mg/kg/day
same,dose without acute toxic effects,critically ill rabbits; per kg body weight,approximately 100 mg/kg/day
same,loss of membrane integrity (PI positivity and Annexin V+PI+),"[1]; after 18 days of aging, 50% without spermidine",less than 10%
same,"externalization of phosphatidylserine (Annexin V+PI− cells), early apoptotic marker",[1]; [5],remained largely unaltered
same,markers of necrosis and oxidative stress (DHE positivity),[1]; [5],drastically diminished
same,general HAT activity,[2],efficiently inhibited
same,oxygen consumption,"[3]; day 20, 4 mM spermidine",reduced their oxygen consumption
same,quiescence status (upper and lower cell fractions),"[3]; gradient separation, 4 mM spermidine",resemble the status of quiescence
same,mutation frequency and budding index,[4],neither associated with an increased mutation frequency nor a higher budding index
